Data on 30 molecules can be found in PubChem BioAssay (NCI).

SMILES strings stand for the structures.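 96-well plates; 48 h exposure; 5 concentrations. Endpoints by linear interpolation between flanking doses. Not reached: highest tested concentration assigned. Definition used: TGI = concentration required for complete inhibition of growth.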 Some results are limits rather than exact numbers.

Holding throughout (assay): DTP human tumour cell line panel, 48 h
Test [1] deals with MOLT-4 leukemia.
In test [2] the test system is COLO 205 colon.
Test [3] relates to SNB-75 CNS.
In test [4] the test system is OVCAR-5 ovarian.
In test [5] the test system is SK-OV-3 ovarian.
The test system of test [6] is MDA-N.
The test system of test [7] is K-562 leukemia.
In test [8] the test system is MDA-MB-435.
The test system of test [9] is NCI-H522 lung.
Test [10] deals with LOX IMVI melanoma.

Consider `Cc1cc(Cl)nc2nc(Cl)c(N)cc12`, for which the TGI is more than 22.6 µM in test [1]; 4.3 µM in [2]; 30 µM in [3]; 34 µM in test [4]; 37.8 µM in test [5]; 3.63 µM in test [6]. Also, the TGI in [7] was more than 100 µM; in test [8], 4.64 µM; in [9] it was 12 µM; in [10], 3.63 µM.

Take `COc1ccc(OC)c(NCC(=O)Nn2cnc3ccc(S(=O)(=O)Nc4cc(OC)ccc4OC)cc3c2=O)c1`: the TGI in [1], in test [2], in test [3], in test [4], in test [5] and in [6] was more than 100 µM in each case. Further, the TGI in test [7], in [8], in test [9] and in test [10] was more than 100 µM each time.

With `CC(O)C1(CNc2cc(Cl)nc(N)n2)CCCCC1` (stereo not drawn), the TGI in test [1], in test [2], in [3], in [4], in test [5] and in test [6] was more than 100 µM each time. The TGI in test [7], in test [8], in test [9] and in [10] was more than 100 µM each time.

Consider `CCOP(=O)(OCC)/C(C#N)=C/c1cccn1C(C)C`, for which the TGI in test [1], in [2], in test [3], in test [4], in [5] and in test [6] was more than 100 µM each time. Moreover, the TGI in [7], in test [8], in test [9] and in test [10] was more than 100 µM each time.

Turning to `CC1CN=C(NS(=O)(=O)c2cc(C(=O)Nc3ccc(Cl)cc3)c(Cl)cc2S)NN1` (stereo not drawn), the TGI in test [1], in [2], in test [4], in [5], in [6] and in [7] was more than 100 µM each time. Besides, the total growth inhibition concentration (TGI) is 73.1 µM in test [8], 64.1 µM in [9] and more than 100 µM in [10].

For the molecule `NNC(=O)CC(=O)Nc1cccc(Cl)c1`, the TGI in [1], in [2], in [3], in test [4], in test [5] and in test [6] was more than 100 µM throughout. For the same molecule, the TGI in [7], in test [8], in [9] and in test [10] was more than 100 µM in each case.

As to `CCNC(=O)c1cc(Cl)ccc1NC(=O)C12CC3CC(CC(C3)C1)C2`, the TGI is more than 100 µM in test [1]; more than 100 µM in [2]; more than 100 µM in test [4]; 70.9 µM in [6]; more than 100 µM in [7]; more than 100 µM in [8]. The TGI in test [9] and in test [10] was more than 100 µM in each case.

On to `OC1c2ccccc2CCC1CN1CCN(CCOC(c2ccc(F)cc2)c2ccc(F)cc2)CC1` (stereo not drawn), for which the TGI is more than 100 µM in test [1]; 3.44 µM in [2]; 70.5 µM in test [3]; more than 100 µM in test [5]; 36.3 µM in test [6]; 27.5 µM in test [7]. The TGI in [8] turned out to be 80.1 µM; in [9], 33.6 µM; in test [10], 27.1 µM.

As to `N#CC1(C#N)NC(c2ccccc2)C(C#N)(C#N)NC1c1ccccc1` (stereo not drawn), the TGI in test [1], in test [2], in test [3], in [4], in test [5] and in [6] was more than 100 µM each time. Besides, the TGI in test [7], in [8], in test [9] and in [10] was more than 100 µM throughout.

With `c1cc(-c2ccc(-c3ccc(-c4ccc(-c5ccncc5)o4)cc3)o2)ccn1`, the TGI in test [1] was found to be 25.7 µM; in test [2], 30.2 µM; in test [3] it was 36.6 µM; in test [4], 55.6 µM; in [5], 45.2 µM; in test [6] it was 31.1 µM. Further, the TGI in test [7] stood at 39 µM; in [8] it was 33.4 µM; in [9], 31.7 µM; in test [10] it was 42.8 µM.

With `CCOC(=O)c1cc(-n2nnc3ccccc32)cn1C`, the total growth inhibition concentration (TGI) in test [1], in [2], in [3], in test [4], in test [5] and in test [6] was more than 10 µM each time. Further, the TGI in test [7], in test [8], in test [9] and in test [10] was more than 10 µM throughout.

As for `COC(=O)C1CCN(C(=O)OC(C)(C)C)CC1`, the TGI in test [1], in test [2], in test [3], in test [4], in [6] and in test [8] was more than 100 µM each time. Further, the TGI in [9] and in test [10] was more than 100 µM throughout.

For `O=P1(c2ccccc2)c2ccccc2-c2ccccc21`, the TGI in test [1], in test [2], in test [3], in [5], in [6] and in test [7] was more than 100 µM throughout. For the same molecule, the TGI in test [8], in test [9] and in [10] was more than 100 µM each time.

For the molecule `CC1(c2sccc2Cl)CC(c2sccc2Cl)=C(C#N)C(=C(C#N)C#N)N1` (stereo not drawn), the TGI is more than 100 µM in test [1]; 41.8 µM in [2]; 41.7 µM in [4]; 31.5 µM in test [5]; 35 µM in test [6]; 48.3 µM in test [8]. In addition, the concentration for total growth inhibition (TGI) in test [9] came to 35.8 µM; in test [10], 37.8 µM.

In the case of `S=C(NCCc1ccccn1)N/N=C/c1ccccn1`, the TGI is 0.452 µM in test [2]; more than 100 µM in test [3]; more than 100 µM in test [4]; more than 100 µM in test [5]; more than 100 µM in [6]; more than 100 µM in test [8]. Besides, the total growth inhibition concentration (TGI) in [9] was 1.57 µM; in test [10], 22.5 µM.

Take `CC(CC(N)C(=O)O)C(=O)O` (stereo not drawn): the concentration for total growth inhibition (TGI) in [1], in test [4], in test [6], in test [7], in test [8] and in [9] was more than 100 µM each time. The molecule also gave a TGI in test [10] of more than 100 µM.

Consider `CC12C3C4C1C1C2C3C41CO` (stereo not drawn), for which the TGI in test [1], in test [2], in [3], in test [4], in test [5] and in test [6] was more than 100 µM throughout. Also, the TGI in [7], in test [8] and in [10] was more than 100 µM each time.

`O=[N+]([O-])C(/C=C(\Cl)[N+](=O)[O-])=C1Nc2ccccc2N1`: the TGI in test [1], in test [2], in [3], in test [5], in test [6] and in [7] was more than 100 µM throughout. Moreover, the TGI in test [8], in test [9] and in test [10] was more than 100 µM throughout.

On to `CCOC(=O)C(NC(=O)c1ccccc1)(Nc1ccc(S(=O)(=O)Nc2ncccn2)cc1)C(F)(F)F` (stereo not drawn), for which the TGI in test [1], in test [2], in test [3], in [4], in test [5] and in [6] was more than 100 µM throughout. Further, the TGI in test [7], in [8] and in test [10] was more than 100 µM throughout.

Turning to `Cc1ccc(C2(c3ccc(Cl)cc3)c3ccccc3C3=NCCN32)cc1` (stereo not drawn), the TGI in test [1] worked out at 20.9 µM; in test [2], 18.7 µM; in [3], 24.9 µM; in [4], 26 µM; in test [5], 20.7 µM; in test [6], 12.4 µM. The figures for the TGI in [7], in test [8] and in test [10] were more than 100 µM, 10.1 µM and 27.7 µM, respectively.

Regarding `CC1(C)[C@@H]2CC[C@]1(C)[C@H](OC(=O)/C=C/c1ccccc1)C2`, the TGI in [2] is 31 µM; in test [3], 33.3 µM; in [4] it was 39.1 µM; in test [5] it was 84.2 µM; in test [6] it was 92.6 µM; in test [7] it was 38.1 µM. Further, the TGI in [8] stood at 77.7 µM; in test [9], 28.6 µM; in test [10] it was 37.1 µM.

Regarding `Oc1ccc([C@H]2c3c(O)cc(O)cc3C3c4c(cc(O)cc4[C@@H]2[C@H]2c4cc(O)cc5c4C(c4cc(O)cc(O)c4[C@@H]2c2ccc(O)cc2)[C@@H](c2ccc(O)cc2)O5)O[C@@H]3c2ccc(O)cc2)cc1` (stereo partly drawn), the TGI is more than 100 µM in test [1]; 8.15 µM in [2]; more than 100 µM in test [3]; more than 100 µM in test [4]; more than 100 µM in test [6]; more than 100 µM in test [7]. Further, the TGI in test [8], in test [9] and in [10] was more than 100 µM throughout.

Turning to `NS(=O)(=O)c1nnc(NC(=O)C23CC4CC(CC(C4)C2)C3)s1`, the TGI in [1], in test [2], in test [4], in test [5], in test [6] and in test [7] was more than 100 µM in each case. Moreover, the TGI in test [8], in test [9] and in test [10] was more than 100 µM in each case.

Turning to `Cc1cc(S(=O)(=O)N2CCNNC2=O)c(S)cc1Cl`, the concentration for total growth inhibition (TGI) in test [1], in test [2], in test [3], in test [4], in [6] and in test [7] was more than 100 µM each time. Further, the TGI in test [8] was more than 100 µM; in test [9] it was 66.6 µM; in [10], more than 100 µM.

For `COC(=O)C1CCC(=O)N1C(c1cc(OC)c(OC)c(OC)c1)c1cc(OC)c(OC)c(OC)c1` (stereo not drawn), the TGI in test [1], in test [3], in test [4], in [5], in test [6] and in test [7] was more than 100 µM each time. Moreover, the TGI in test [8], in test [9] and in test [10] was more than 100 µM throughout.

With `COc1ccccc1Cc1ccc(C2C=CC3(CC(=O)C=C3C)C(=O)C2)o1` (stereo not drawn), the TGI in test [1] was 34.1 µM; in [2], 50.5 µM; in test [4], more than 100 µM; in [6], 44.2 µM; in [7], 50.1 µM; in test [8], 46.8 µM. Also, the total growth inhibition concentration (TGI) is 37.4 µM in test [9] and 34.9 µM in [10].

As for `N#CC(N=Nc1ccccc1C(=O)O)C(N)=O` (stereo not drawn), the TGI in test [1], in [3], in test [4], in [6], in test [7] and in test [8] was more than 100 µM each time. The concentration for total growth inhibition (TGI) in [9] is more than 100 µM.

As to `CC(=O)Oc1cc(S(=O)(=O)Nc2n[nH]c(Nc3ccc(C)cc3)n2)c(S)cc1Cl`, the TGI in test [1], in [2], in [4], in test [6], in [7] and in test [8] was more than 100 µM each time. For the same molecule, the TGI in [9] and in [10] was more than 100 µM in each case.

In the case of `COC(=O)C1CCC(=S)N1C(=O)OCc1ccccc1` (stereo not drawn), the TGI in test [1], in test [2], in [3], in test [4], in test [5] and in test [6] was more than 100 µM each time. The TGI in [7], in test [8] and in test [9] was more than 100 µM each time.

Regarding `CC(=O)Nc1ccc2nc(-c3ccccn3)c(-c3ccccn3)nc2c1`, the TGI in [1], in test [2], in [3], in test [4], in test [6] and in test [7] was more than 100 µM in each case. For the same molecule, the TGI in [8], in test [9] and in test [10] was more than 100 µM each time.

The term TGI denotes the concentration giving total growth inhibition. A high value points to lower sensitivity of the cells.
